Experimental data as given in patent US6641797B2, “Perfluoroalkyl-containing complexes with sugar radicals, process for their production and their use” (Schering Aktiengesellschaft, priority 2000, dated 2003).

Legend:
Format in all cases: in vivo
[1] = system: rats with acute induced myocardial infarction; test: Infarction visualization (MRT) after intravenous administration in rats with acute induced myocardial infarction; details: 100 μmol of Gd/kg i.v.; 24 hours; T1-weighted spin-echo, 1.5 T; confirmed by NBT staining
Method: Infarction Visualization (MRT) After Intravenous Administration of the Contrast Medium According to the Invention of Example 1 in Rats
MR images were prepared of the heart (in vivo and post mortem) 24 hours after intravenous administration of 100 μmol of Gd/kg of body weight of the title compound of Example 1 in rats with acute induced myocardial infarction. […] The successful indication of an acute myocardial infarction was confirmed using NBT staining.

[2] = Organ distribution (including tumor and lymph node concentration) after intravenous administration in prostate-cancer-carrying rats; details: 225 μmol total Gd/kg i.v.
Excerpt: Organ Distribution (Including Tumor and Lymph Node Concentration) After Intravenous Administration of the Contrast Medium According to the Invention of Example 1 in Prostate-cancer-carrying Rats
After intravenous administration of 225 μmol of total gadolinium/kg of body weight of the title compound of Example 1 in rats (Cop-inbreeding Dunning R3327 MAT-Lu prostate cancer i.m.-implanted 12 days earlier), the metal content in various organs, in tumors and in lymph nodes (pooled as mesenteral and peripheral lymph nodes) was determined 10 minutes, 1 and 24 hours after administration (MW±SD, n=3).

[3] = system: VX2-tumor-carrying rabbits; test: Lymph node visualization (MRT) after intravenous administration in VX2-tumor-carrying rabbits; details: 200 μmol of Gd/kg i.v.
Excerpt: Lymph Node Visualization (MRT) After Intravenous Administration of the Contrast Medium According to the Invention of Example 1 in VX2-tumor-carrying Rabbits

[4] = Intestine (emptied), 10 min p.i.
[5] = Muscle (only tissue sample from right lower leg muscle), 10 min p.i.
[6] = Muscle (only tissue sample from right lower leg muscle), 1 h p.i.
[7] = Muscle (only tissue sample from right lower leg muscle), 24 h p.i.
[8] = Remainder of body (also contains the remainder of the blood), 24 h p.i.
[9] = mes. LK (pooled mesenteral lymph nodes), 10 min p.i.
[10] = mes. LK (pooled mesenteral lymph nodes), 1 h p.i.
[11] = mes. LK (pooled mesenteral lymph nodes), 24 h p.i.
[12] = periph. LK (pooled peripheral lymph nodes), 10 min p.i.
[13] = periph. LK (pooled peripheral lymph nodes), 1 h p.i.
[14] = periph. LK (pooled peripheral lymph nodes), 24 h p.i.

SMILES: CC(C(=O)NCC(=O)NCCCC[C@H](NC(=O)CO[C@H]1O[C@H](CO)[C@@H](O)[C@H](O)[C@@H]1O)C(=O)N1CCN(S(=O)(=O)C(F)(F)C(F)(F)C(F)(F)C(F)(F)C(F)(F)C(F)(F)C(F)(F)C(F)(F)F)CC1)N1CCN(CC(=O)[O-])CCN(CC(=O)[O-])CCN(CC(=O)[O-])CC1.[Gd+3] (some centres unmarked) [Example 1]
- MR signal in the infarction area [1]: strong signal rise
- % Dose per Total Tissue, Balance ([2]; Balance, 24 h p.i.): 94.1 ± 6.41 % Dose
- % Dose per Total Tissue ([2]; Blood (58 ml of blood/kg of body weight), 10 min p.i.): 42.95 ± 2.59 % Dose
- % Dose per Total Tissue ([2]; Blood (58 ml of blood/kg of body weight), 1 h p.i.): 21.47 ± 1.78 % Dose
- % Dose per Total Tissue ([2]; Blood (58 ml of blood/kg of body weight), 24 h p.i.): 1.78 ± 0.03 % Dose
- Gd-Concentration ([2]; Blood, 10 min p.i.): 1665 ± 110 µmol/L
- Gd-Concentration ([2]; Blood, 1 h p.i.): 825 ± 67 µmol/L
- Gd-Concentration ([2]; Blood, 24 h p.i.): 214 ± 9 µmol/L
- % Dose per Total Tissue ([2]; Brain, 10 min p.i.): 0.15 ± 0.03 % Dose
- Gd-Concentration ([2]; Brain, 10 min p.i.): 47 ± 13 µmol/L
- % Dose per Total Tissue ([2]; Brain, 1 h p.i.): 0.08 ± 0.02 % Dose
- Gd-Concentration ([2]; Brain, 1 h p.i.): 26 ± 5 µmol/L
- % Dose per Total Tissue ([2]; Brain, 24 h p.i.): 0.04 ± 0.00 % Dose
- Gd-Concentration ([2]; Brain, 24 h p.i.): 14 ± 2 µmol/L
- % Dose per Total Tissue ([2]; Feces 0-24 h): 21.85 ± 1.46 % Dose
- Gd-Concentration ([2]; Feces 0-24 h): 3128 ± 204 µmol/L
- % Dose per Total Tissue ([2]; Femur, 10 min p.i.): 0.65 ± 0.01 % Dose
- Gd-Concentration ([2]; Femur, 10 min p.i.): 184 ± 4 µmol/L
- % Dose per Total Tissue ([2]; Femur, 1 h p.i.): 0.46 ± 0.03 % Dose
- Gd-Concentration ([2]; Femur, 1 h p.i.): 127 ± 9 µmol/L
- % Dose per Total Tissue ([2]; Femur, 24 h p.i.): 0.31 ± 0.03 % Dose
- Gd-Concentration ([2]; Femur, 24 h p.i.): 87 ± 6 µmol/L
- % Dose per Total Tissue ([2]; Heart, 10 min p.i.): 0.46 ± 0.01 % Dose
- Gd-Concentration ([2]; Heart, 10 min p.i.): 438 ± 29 µmol/L
- % Dose per Total Tissue ([2]; Heart, 1 h p.i.): 0.31 ± 0.03 % Dose
- Gd-Concentration ([2]; Heart, 1 h p.i.): 289 ± 24 µmol/L
- % Dose per Total Tissue ([2]; Heart, 24 h p.i.): 0.14 ± 0.02 % Dose
- Gd-Concentration ([2]; Heart, 24 h p.i.): 131 ± 9 µmol/L
- % Dose per Total Tissue [2, 4]: 2.91 ± 0.18 % Dose
- Gd-Concentration [2, 4]: 342 ± 16 µmol/L
- % Dose per Total Tissue ([2]; Intestine (emptied), 1 h p.i.): 3.41 ± 1.02 % Dose
- Gd-Concentration ([2]; Intestine (emptied), 1 h p.i.): 409 ± 67 µmol/L
- % Dose per Total Tissue ([2]; Intestine (emptied), 24 h p.i.): 2.14 ± 0.14 % Dose
- Gd-Concentration ([2]; Intestine (emptied), 24 h p.i.): 243 ± 22 µmol/L
- % Dose per Total Tissue ([2]; Kidney, 10 min p.i.): 5.02 ± 1.29 % Dose
- Gd-Concentration ([2]; Kidney, 10 min p.i.): 2081 ± 537 µmol/L
- % Dose per Total Tissue ([2]; Kidney, 1 h p.i.): 2.15 ± 0.23 % Dose
- Gd-Concentration ([2]; Kidney, 1 h p.i.): 883 ± 94 µmol/L
- % Dose per Total Tissue ([2]; Kidney, 24 h p.i.): 2.97 ± 0.21 % Dose
- Gd-Concentration ([2]; Kidney, 24 h p.i.): 1178 ± 139 µmol/L
- % Dose per Total Tissue ([2]; Liver, 10 min p.i.): 5.46 ± 0.16 % Dose
- Gd-Concentration ([2]; Liver, 10 min p.i.): 387 ± 26 µmol/L
- % Dose per Total Tissue ([2]; Liver, 1 h p.i.): 5.81 ± 0.16 % Dose
- Gd-Concentration ([2]; Liver, 1 h p.i.): 364 ± 8 µmol/L
- % Dose per Total Tissue ([2]; Liver, 24 h p.i.): 11.65 ± 0.97 % Dose
- Gd-Concentration ([2]; Liver, 24 h p.i.): 746 ± 34 µmol/L
- % Dose per Total Tissue ([2]; Lung, 10 min p.i.): 1.69 ± 0.06 % Dose
- Gd-Concentration ([2]; Lung, 10 min p.i.): 837 ± 32 µmol/L
- % Dose per Total Tissue ([2]; Lung, 1 h p.i.): 1.38 ± 0.08 % Dose
- Gd-Concentration ([2]; Lung, 1 h p.i.): 658 ± 29 µmol/L
- % Dose per Total Tissue ([2]; Lung, 24 h p.i.): 0.73 ± 0.04 % Dose
- Gd-Concentration ([2]; Lung, 24 h p.i.): 370 ± 34 µmol/L
- % Dose per Total Tissue [2, 5]: 10.11 ± 0.03 % Dose
- Gd-Concentration [2, 5]: 99 ± 5 µmol/L
- % Dose per Total Tissue [2, 6]: 0.09 ± 0.03 % Dose
- Gd-Concentration [2, 6]: 78 ± 1 µmol/L
- % Dose per Total Tissue [2, 7]: 0.04 ± 0.00 % Dose
- Gd-Concentration [2, 7]: 36 ± 1 µmol/L
- % Dose per Total Tissue ([2]; Pancreas, 10 min p.i.): 0.26 ± 0.05 % Dose
- Gd-Concentration ([2]; Pancreas, 10 min p.i.): 229 ± 27 µmol/L
- % Dose per Total Tissue ([2]; Pancreas, 1 h p.i.): 0.21 ± 0.05 % Dose
- Gd-Concentration ([2]; Pancreas, 1 h p.i.): 199 ± 30 µmol/L
- % Dose per Total Tissue ([2]; Pancreas, 24 h p.i.): 0.17 ± 0.02 % Dose
- Gd-Concentration ([2]; Pancreas, 24 h p.i.): 130 ± 13 µmol/L
- % Dose per Total Tissue [2, 8]: 30.83 ± 4.05 % Dose
- Gd-Concentration [2, 8]: 225 ± 31 µmol/L
- % Dose per Total Tissue ([2]; Spleen, 10 min p.i.): 0.39 ± 0.03 % Dose
- Gd-Concentration ([2]; Spleen, 10 min p.i.): 548 ± 22 µmol/L
- % Dose per Total Tissue ([2]; Spleen, 1 h p.i.): 0.39 ± 0.02 % Dose
- Gd-Concentration ([2]; Spleen, 1 h p.i.): 487 ± 25 µmol/L
- % Dose per Total Tissue ([2]; Spleen, 24 h p.i.): 0.57 ± 0.03 % Dose
- Gd-Concentration ([2]; Spleen, 24 h p.i.): 645 ± 27 µmol/L
- % Dose per Total Tissue ([2]; Stomach (emptied), 10 min p.i.): 0.57 ± 0.04 % Dose
- Gd-Concentration ([2]; Stomach (emptied), 10 min p.i.): 231 ± 10 µmol/L
- % Dose per Total Tissue ([2]; Stomach (emptied), 1 h p.i.): 0.54 ± 0.12 % Dose
- Gd-Concentration ([2]; Stomach (emptied), 1 h p.i.): 219 ± 46 µmol/L
- % Dose per Total Tissue ([2]; Stomach (emptied), 24 h p.i.): 0.37 ± 0.06 % Dose
- Gd-Concentration ([2]; Stomach (emptied), 24 h p.i.): 138 ± 9 µmol/L
- % Dose per Total Tissue, Sum of Organs ([2]; Sum of Organs (less the remainder of the body), 10 min p.i.): 60.47 ± 3.68 % Dose
- % Dose per Total Tissue, Sum of Organs ([2]; Sum of Organs (less the remainder of the body), 1 h p.i.): 36.33 ± 2.51 % Dose
- % Dose per Total Tissue, Sum of Organs ([2]; Sum of Organs, 24 h p.i.): 52.01 ± 5.22 % Dose
- % Dose per Total Tissue ([2]; Tumor, 10 min p.i.): 0.28 ± 0.10 % Dose
- Gd-Concentration ([2]; Tumor, 10 min p.i.): 185 ± 36 µmol/L
- % Dose per Total Tissue ([2]; Tumor, 1 h p.i.): 0.21 ± 0.02 % Dose
- Gd-Concentration ([2]; Tumor, 1 h p.i.): 184 ± 13 µmol/L
- % Dose per Total Tissue ([2]; Tumor, 24 h p.i.): 0.31 ± 0.01 % Dose
- Gd-Concentration ([2]; Tumor, 24 h p.i.): 199 ± 19 µmol/L
- % Dose per Total Tissue ([2]; Urine 0-24 h): 20.20 ± 4.41 % Dose
- Gd-Concentration ([2]; Urine 0-24 h): 94 ± 20 µmol/L
- % Dose per Total Tissue [2, 9]: 0.11 ± 0.04 % Dose
- Gd-Concentration [2, 9]: 359 ± 72 µmol/L
- % Dose per Total Tissue [2, 10]: 0.24 ± 0.02 % Dose
- Gd-Concentration [2, 10]: 697 ± 42 µmol/L
- % Dose per Total Tissue [2, 11]: 0.32 ± 0.04 % Dose
- Gd-Concentration [2, 11]: 854 ± 135 µmol/L
- % Dose per Total Tissue [2, 12]: 0.10 ± 0.01 % Dose
- Gd-Concentration [2, 12]: 229 ± 15 µmol/L
- % Dose per Total Tissue [2, 13]: 0.20 ± 0.03 % Dose
- Gd-Concentration [2, 13]: 436 ± 44 µmol/L
- % Dose per Total Tissue [2, 14]: 0.18 ± 0.01 % Dose
- Gd-Concentration [2, 14]: 373 ± 24 µmol/L
- MR signal in lymph node metastasis ([3]; 24 hours after administration): considerable signal rise
- MR signal rise in healthy lymph node tissue ([3]; 24 hours after administration): reduced
- MR enhancement of the primary tumor ([3]; 24 hours p.i.): enhancement also propagates out from the center of the tumor
- MR signal in lymph node metastasis ([3]; early after administration, confirmed histologically): without a signal rise
- MR signal in healthy lymph node tissue ([3]; iliac lymph nodes, T1-weighted gradient-echo, 1.5 T, early after administration): strong signal rise
- MR enhancement of the primary tumor ([3]; immediately after administration, especially the periphery): considerable enhancement
